pIC50: −log10 of the molar value. Calls of active or inactive are those of the source. The calls are words filed in the database; no cut-off is given here.
Columns and labels:
SR = assay: Antiproliferative activity against human SR cells assessed as reduction in cell growth; format: functional, cell-based
[1] = molecular target: T1, von Hippel-Lindau disease tumor suppressor/ALK tyrosine kinase receptor/Nucleophosmin (Homo sapiens, UniProt Q9UM73+P06748+P40337); assay: Protac activity at VHL/NPM-ALK fusion protein in human SR cells assessed as degradation of ALK at 100 nM measured after 24 hrs; format: cell-based
Target sequence in this assay (P06748 whole entry partner, the tested form may be a part): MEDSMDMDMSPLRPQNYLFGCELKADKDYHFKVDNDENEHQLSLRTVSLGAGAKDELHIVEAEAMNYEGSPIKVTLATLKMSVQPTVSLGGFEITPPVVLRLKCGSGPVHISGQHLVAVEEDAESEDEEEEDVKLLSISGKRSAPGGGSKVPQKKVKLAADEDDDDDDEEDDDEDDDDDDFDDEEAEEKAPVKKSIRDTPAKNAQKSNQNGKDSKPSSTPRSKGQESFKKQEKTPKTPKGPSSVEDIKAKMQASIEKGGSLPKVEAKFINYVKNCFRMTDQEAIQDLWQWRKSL
Target sequence in this assay (P40337 whole entry partner, the tested form may be a part): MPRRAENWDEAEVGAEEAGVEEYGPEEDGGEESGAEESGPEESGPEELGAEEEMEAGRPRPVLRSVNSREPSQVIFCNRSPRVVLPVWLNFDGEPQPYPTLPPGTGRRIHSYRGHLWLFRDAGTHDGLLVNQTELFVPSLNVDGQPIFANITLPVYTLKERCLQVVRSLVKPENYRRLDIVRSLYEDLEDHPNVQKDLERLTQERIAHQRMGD
Target sequence in this assay (Q9UM73 19-1620 limits assumed): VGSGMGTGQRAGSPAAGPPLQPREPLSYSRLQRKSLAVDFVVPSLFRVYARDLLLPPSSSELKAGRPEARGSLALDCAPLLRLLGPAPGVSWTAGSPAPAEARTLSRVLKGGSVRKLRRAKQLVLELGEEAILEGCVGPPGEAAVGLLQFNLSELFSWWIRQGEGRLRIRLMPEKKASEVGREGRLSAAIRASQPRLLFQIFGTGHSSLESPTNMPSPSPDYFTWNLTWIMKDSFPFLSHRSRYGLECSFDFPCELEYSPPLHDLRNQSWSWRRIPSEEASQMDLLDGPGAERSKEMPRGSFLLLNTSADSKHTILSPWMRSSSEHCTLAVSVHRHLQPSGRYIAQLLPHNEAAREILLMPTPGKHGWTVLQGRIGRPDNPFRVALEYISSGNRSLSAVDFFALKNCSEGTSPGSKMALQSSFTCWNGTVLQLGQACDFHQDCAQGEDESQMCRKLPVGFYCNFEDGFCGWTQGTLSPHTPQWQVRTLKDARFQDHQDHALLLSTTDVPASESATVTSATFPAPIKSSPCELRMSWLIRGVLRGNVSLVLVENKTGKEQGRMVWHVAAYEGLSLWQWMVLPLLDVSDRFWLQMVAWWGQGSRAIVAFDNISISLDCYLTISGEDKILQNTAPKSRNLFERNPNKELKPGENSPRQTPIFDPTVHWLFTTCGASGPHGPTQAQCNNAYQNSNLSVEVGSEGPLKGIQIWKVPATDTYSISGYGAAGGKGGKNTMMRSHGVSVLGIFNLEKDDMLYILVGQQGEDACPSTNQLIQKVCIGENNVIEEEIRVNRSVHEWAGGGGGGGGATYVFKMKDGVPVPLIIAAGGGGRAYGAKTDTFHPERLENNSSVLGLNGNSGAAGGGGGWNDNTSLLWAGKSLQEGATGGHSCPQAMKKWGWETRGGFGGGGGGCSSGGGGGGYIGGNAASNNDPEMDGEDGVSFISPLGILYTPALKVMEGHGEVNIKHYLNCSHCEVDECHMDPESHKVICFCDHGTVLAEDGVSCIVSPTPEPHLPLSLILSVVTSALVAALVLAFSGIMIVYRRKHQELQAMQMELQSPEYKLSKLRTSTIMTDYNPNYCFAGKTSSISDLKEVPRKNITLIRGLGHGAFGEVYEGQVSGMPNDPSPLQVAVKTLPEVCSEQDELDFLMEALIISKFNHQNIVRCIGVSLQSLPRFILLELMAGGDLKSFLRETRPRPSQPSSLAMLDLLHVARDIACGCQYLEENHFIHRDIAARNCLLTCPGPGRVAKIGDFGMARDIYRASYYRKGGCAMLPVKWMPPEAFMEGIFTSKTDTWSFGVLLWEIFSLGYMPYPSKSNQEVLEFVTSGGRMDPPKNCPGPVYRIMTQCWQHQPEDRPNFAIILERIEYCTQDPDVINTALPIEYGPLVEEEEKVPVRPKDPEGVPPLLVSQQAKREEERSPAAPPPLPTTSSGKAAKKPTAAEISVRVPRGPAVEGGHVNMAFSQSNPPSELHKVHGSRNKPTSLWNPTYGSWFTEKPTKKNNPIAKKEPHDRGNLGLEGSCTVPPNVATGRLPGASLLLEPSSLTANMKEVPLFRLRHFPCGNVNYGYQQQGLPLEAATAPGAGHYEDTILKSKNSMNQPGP

[2] = molecular target: T1, von Hippel-Lindau disease tumor suppressor/ALK tyrosine kinase receptor/Nucleophosmin; assay: Protac activity at VHL/NPM-ALK fusion protein in human SR cells assessed as reduction in STAT3 phosphorylation at 1 to 500 nM; format: cell-based; details: dose 1-500 nM
Target sequence in this assay (P06748 whole entry partner, the tested form may be a part): as the sequence (P06748 whole entry partner, the tested form may be a part) above
Target sequence in this assay (P40337 whole entry partner, the tested form may be a part): as the sequence (P40337 whole entry partner, the tested form may be a part) above
Target sequence in this assay (Q9UM73 19-1620 limits assumed): as the sequence (Q9UM73 19-1620 limits assumed) above

[3] = molecular target: T1, von Hippel-Lindau disease tumor suppressor/ALK tyrosine kinase receptor/Nucleophosmin; assay: Protac activity at VHL/NPM-ALK fusion protein in human SR cells assessed as reduction in ALK phosphorylation at 50 nM; format: cell-based; parameters: scale not given: the % may be the effect or the level left
Target sequence in this assay (P06748 whole entry partner, the tested form may be a part): as the sequence (P06748 whole entry partner, the tested form may be a part) above
Target sequence in this assay (P40337 whole entry partner, the tested form may be a part): as the sequence (P40337 whole entry partner, the tested form may be a part) above
Target sequence in this assay (Q9UM73 19-1620 limits assumed): as the sequence (Q9UM73 19-1620 limits assumed) above

NCI-H2228 = assay: Antiproliferative activity against human NCI-H2228 cells expressing EML4-ALK assessed as reduction in cell viability incubated for 72 hrs by CCK8 assay; format: functional, cell-based; details: NCI-H2228, 72 h
[4] = molecular target: von Hippel-Lindau disease tumor suppressor/ALK tyrosine kinase receptor/Echinoderm microtubule-associated protein-like 4 (Homo sapiens, UniProt P40337+Q9HC35+Q9UM73, G1202R)
[5] = molecular target: T1, von Hippel-Lindau disease tumor suppressor/ALK tyrosine kinase receptor/Nucleophosmin; assay: Protac activity at VHL/NPM-ALK fusion protein in human SR cells assessed as degradation of ALK; format: cell-based
[6] = molecular target: T1, von Hippel-Lindau disease tumor suppressor/ALK tyrosine kinase receptor/Nucleophosmin; assay: Protac activity at VHL/NPM-ALK fusion protein in human SR cells assessed as degradation of ALK at 100 nM; format: cell-based; details: TDE = time-dependent effect
Target sequence in this assay (P06748 whole entry partner, the tested form may be a part): as the sequence (P06748 whole entry partner, the tested form may be a part) above
Target sequence in this assay (P40337 whole entry partner, the tested form may be a part): as the sequence (P40337 whole entry partner, the tested form may be a part) above
Target sequence in this assay (Q9UM73 19-1620 limits assumed): as the sequence (Q9UM73 19-1620 limits assumed) above

[7] = molecular target: T1, von Hippel-Lindau disease tumor suppressor/ALK tyrosine kinase receptor/Nucleophosmin; assay: Protac activity at VHL/NPM-ALK fusion protein in human SR cells assessed as degradation of ALK measured after 16 hrs in presence of proteasome inhibitor MG132; format: cell-based
Target sequence in this assay (P06748 whole entry partner, the tested form may be a part): as the sequence (P06748 whole entry partner, the tested form may be a part) above
Target sequence in this assay (P40337 whole entry partner, the tested form may be a part): as the sequence (P40337 whole entry partner, the tested form may be a part) above
Target sequence in this assay (Q9UM73 19-1620 limits assumed): as the sequence (Q9UM73 19-1620 limits assumed) above

[8] = molecular target: T1, von Hippel-Lindau disease tumor suppressor/ALK tyrosine kinase receptor/Nucleophosmin; assay: Protac activity at VHL/NPM-ALK fusion protein in human SR cells assessed as degradation of ALK measured after 16 hrs in presence of proteasome inhibitor MLN4924; format: cell-based
Target sequence in this assay (P06748 whole entry partner, the tested form may be a part): as the sequence (P06748 whole entry partner, the tested form may be a part) above
Target sequence in this assay (P40337 whole entry partner, the tested form may be a part): as the sequence (P40337 whole entry partner, the tested form may be a part) above
Target sequence in this assay (Q9UM73 19-1620 limits assumed): as the sequence (Q9UM73 19-1620 limits assumed) above

[9] = molecular target: T1, von Hippel-Lindau disease tumor suppressor/ALK tyrosine kinase receptor/Nucleophosmin; assay: Protac activity at VHL/NPM-ALK fusion protein in human SR cells assessed as reduction in ALK phosphorylation at 10 nM; format: cell-based
[10] = molecular target: von Hippel-Lindau disease tumor suppressor/Insulin-like growth factor 1 receptor (Homo sapiens) (UniProt P08069+P40337); assay: Protac activity at VHL/IGF1R in human SR cells assessed as induction of IGF1R degradation; format: cell-based
[11] = molecular target: von Hippel-Lindau disease tumor suppressor/Receptor-type tyrosine-protein kinase FLT3 (Homo sapiens) (UniProt P36888+P40337); assay: Protac activity at VHL/FLT3 in human SR cells assessed as induction of FLT3 degradation; format: cell-based
[12] = molecular target: von Hippel-Lindau disease tumor suppressor/Proto-oncogene tyrosine-protein kinase ROS (Homo sapiens) (UniProt P08922+P40337); assay: Protac activity at VHL/ROS1 in human SR cells assessed as induction of ROS1 degradation; format: cell-based
[13] = molecular target: von Hippel-Lindau disease tumor suppressor/Aurora kinase A (Homo sapiens) (UniProt O14965+P40337); assay: Protac activity at VHL/Aurora A in human SR cells assessed as induction of Aurora A degradation; format: cell-based
[14] = molecular target: von Hippel-Lindau disease tumor suppressor/Uridine-cytidine kinase 2 (Homo sapiens) (UniProt Q9BZX2+P40337); assay: Protac activity at VHL/UCK2 in human SR cells assessed as induction of UCK2 degradation; format: cell-based
[15] = molecular target: von Hippel-Lindau disease tumor suppressor/Cyclin-G-associated kinase (Homo sapiens) (UniProt O14976+P40337); assay: Protac activity at VHL/GAK in human SR cells assessed as induction of GAK degradation; format: cell-based
[16] = molecular target: von Hippel-Lindau disease tumor suppressor/ALK tyrosine kinase receptor/Echinoderm microtubule-associated protein-like 4 (Homo sapiens) (UniProt Q9UM73+Q9HC35+P40337); assay: Protac activity at VHL/EML4-ALK fusion protein in human NCI-H2228 cells assessed as induction of ALK degradation at 50 to 500 nM; format: cell-based; details: dose 50-500 nM
[17] = molecular target: von Hippel-Lindau disease tumor suppressor/ALK tyrosine kinase receptor/Echinoderm microtubule-associated protein-like 4 (Homo sapiens, UniProt Q9UM73+Q9HC35+P40337, G1202R); assay: Protac activity at VHL/EML4-ALK G1202R mutant fusion protein (unknown origin) expressed in HEK293T cells assessed as induction of ALK degradation by Western blot analysis; format: cell-based
EML4-ALK = EML4-ALK (Homo sapiens, UniProt Q9UM73, G1202R); assay: Inhibition of EML4-ALK G1202R mutant fusion protein (unknown origin) expressed in HEK293T cells; format: cell-based
NCI-H69 = assay: Antiproliferative activity against human NCI-H69 cells assessed as inhibition of cell proliferation; format: functional, cell-based
[18] = molecular target: T1, von Hippel-Lindau disease tumor suppressor/ALK tyrosine kinase receptor/Nucleophosmin; assay: Protac activity at VHL/NPM-ALK fusion protein in human SR cells assessed as induction of ALK degradation 100 nM treated for 24 hrs followed by compound washout and measured after 24 to 48 hrs by Western blot analysis; format: cell-based
cells = details: Homo sapiens, NCI-H1688
Description: Antiproliferative activity against human NCI-H1688 cells assessed as inhibition of cell proliferation

Chain of EML4-ALK (Q9UM73 19-1620 G1202R limits assumed): as the sequence (Q9UM73 19-1620 limits assumed) above, with G1184R counted along it
Chain of von Hippel-Lindau disease tumor suppressor/Aurora kinase A (Homo sapiens) (O14965 whole entry, looked up): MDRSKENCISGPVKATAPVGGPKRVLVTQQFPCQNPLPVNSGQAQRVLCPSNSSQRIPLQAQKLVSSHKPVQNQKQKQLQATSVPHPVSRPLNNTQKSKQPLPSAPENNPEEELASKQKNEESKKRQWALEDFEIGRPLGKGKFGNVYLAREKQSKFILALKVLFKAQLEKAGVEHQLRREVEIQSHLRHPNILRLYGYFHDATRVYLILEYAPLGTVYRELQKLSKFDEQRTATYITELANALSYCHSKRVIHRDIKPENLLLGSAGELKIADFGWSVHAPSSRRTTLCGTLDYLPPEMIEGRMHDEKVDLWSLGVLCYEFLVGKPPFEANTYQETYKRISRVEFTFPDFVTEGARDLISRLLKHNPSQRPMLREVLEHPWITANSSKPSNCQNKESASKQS
Chain of von Hippel-Lindau disease tumor suppressor/Aurora kinase A (Homo sapiens) (P40337 whole entry, looked up): as the sequence (P40337 whole entry partner, the tested form may be a part) above

**Q.** Which results are given for `COc1cc(N2CCC(NC(=O)CCCCCCCCCC(=O)N[C@H](C(=O)N3C[C@@H](O)C[C@H]3C(=O)NCc3ccc(-c4scnc4C)cc3)C(C)(C)C)CC2)ccc1Nc1ncc(Cl)c(Nc2ccccc2P(C)(C)=O)n1`?
**A.** pIC50 (SR): 8.26; Activity [1]: inactive; Activity [2]: Active; Activity [3]: 100%; pIC50 (NCI-H2228): 6.94; pIC50 [4]: 6.22

**Q.** With `COc1cc(N2CCC(NC(=O)CCCCCCCCCC(=O)N[C@H](C(=O)N3C[C@H](O)C[C@H]3C(=O)NCc3ccc(-c4scnc4C)cc3)C(C)(C)C)CC2)ccc1Nc1ncc(Cl)c(Nc2ccccc2P(C)(C)=O)n1` as the compound, how does the pIC50 (SR) read?
**A.** 8.77

**Q.** And the DC50 [5]?
**A.** 0.007 µM

**Q.** What about the Activity [6] of the same compound?
**A.** Tde

**Q.** And the Activity [7]?
**A.** inactive

**Q.** What about the Activity [8] of the same compound?
**A.** inactive

**Q.** And the Activity [9]?
**A.** Active

**Q.** And the Activity [2]?
**A.** Active

**Q.** What about the Activity [10] of the same compound?
**A.** inactive

**Q.** And the Activity [11]?
**A.** inactive

**Q.** What about the Activity [12] of the same compound?
**A.** inactive

**Q.** What about the Activity [13] of the same compound?
**A.** inactive

**Q.** And the Activity [14]?
**A.** inactive

**Q.** What about the Activity [15] of the same compound?
**A.** inactive

**Q.** What about the pIC50 (NCI-H2228) of the same compound?
**A.** 7.34

**Q.** What about the Activity [16] of the same compound?
**A.** Active

**Q.** What about the DC50 [17] of the same compound?
**A.** < 0.2 µM

**Q.** And the pIC50 (EML4-ALK)?
**A.** 6.83

**Q.** And the pIC50 (NCI-H69)?
**A.** 6.10

**Q.** What about the Activity [18] of the same compound?
**A.** Active

**Q.** And the pIC50 [4]?
**A.** 6.78

**Q.** And the pIC50 (cells)?
**A.** 6.59

— ChEMBL document CHEMBL4680228 (Eur J Med Chem, 2020)
